Target: T1, Ba/F3 cell EGFR Exon20 ins NPH (Homo sapiens, UniProt P00533, INS773NPH)
T1 construct: expressed in transfected cells; host or cells: Ba/F3
Test: Ba/F3 cell proliferation suppression, EGFR Exon20 ins NPH
Type: cell-based
Conditions: GI50 class; Ba/F3 cell line with NPH inserted at Exon20 of EGFR; 72 hours
Outline: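 Cells were seeded 24 h before dosing and then treated for 72 hours with compound at final concentrations of 0.3 nM to 50 um. Live cells were measured by CellTiter-Glo luminescence, and GI50 values were derived from growth ratio relative to control across three repeats.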

| SMILES | Ba/F3 (NPH) Activity |
| --- | --- |
| COc1cc(OCCC(C)(C)OC)c(NC(=O)/C=C/CN(C)C)cc1Nc1cc(N2OCC[C@@H]2c2cc(F)cc(F)c2)ncn1 [compound 496, N-(5-((6-((R)-3-(3,5-difluorophenyl)isoxazolidine-2-yl)pyrimidine-4-yl)amino)-4-methoxy-2-(3-methoxy-3-methylbutoxy)phenyl)-(E)-4-(dimethylamino) but-2-enamide] | C (500 nM ≤ GI50 < 5000 nM) |
| C=CC(=O)Nc1cc(Nc2cc(N3OCC[C@@H]3c3cc(F)cc(F)c3)ncn2)c(OC)cc1N1CCC(N2CCN(C3CCC3)CC2)CC1 [Example 68, N-(2-(4-(4-cyclobutylpiperazine-1-yl)piperidine-1-yl)-5-((6-((R)-3-(3,5-difluorophenyl)isoxazolidine-2-yl)pyrimidine-4-yl)amino)-4-methoxyphenyl) acrylamide] | A (GI50 < 50 nM) |
| C=CC(=O)Nc1cc(Nc2cc(N3OCC[C@@H]3c3cc(F)cc(F)c3)ncn2)c(OC)cc1N1CCC(N2CCN3CCCC3C2)CC1 (stereo partly drawn) [compound 852, N-(5-((6-((R)-3-(3,5-difluorophenyl)isoxazolidine-2-yl)pyrimidine-4-yl)amino)-2-(4-(hexahydropyrrolo [1,2-a]pyrazine-2(1H)-yl)piperidine-1-yl)-4-methoxyphenyl) acrylamide] | A (GI50 < 50 nM) |
| C=CC(=O)Nc1cc(Nc2cc(N3OCC[C@@H]3c3cc(F)cc(Cl)c3)ncn2)c(OC)cc1N1CCC(N2C[C@@H]3C[C@H]2CO3)CC1 [compound 592, N-(2-(4-((1S,4S)-2-oxa-5-azabicyclo[2.2.1]heptane-5-yl)piperidine-1-yl)-5-((6-((R)-3-(3-chloro-5-fluorophenyl)isoxazolidine-2-yl)pyrimidine-4-yl)amino)-4-methoxyphenyl) acrylamide] | A (GI50 < 50 nM) |
| C=CC(=O)Nc1cc(Nc2cc(N3OCC[C@@H]3c3c(F)ccc(F)c3F)ncn2)c(OC)cc1N1CCC(N2CCOCC2)CC1 [compound 632, N-(4-methoxy-2-(4-morpholinopiperidine-1-yl)-5-((6-((R)-3-(2,3,6-trifluorophenyl)isoxazolidine-2-yl)pyrimidine-4-yl)amino)phenyl)acrylamide] | A (GI50 < 50 nM) |
| C=CC(=O)Nc1cc(Nc2cc(N3OCC[C@@H]3Cc3cc(F)cc(F)c3)ncn2)c(OC)cc1N1CCC(N2C[C@@H]3C[C@H]2CO3)CC1 [compound 1035, N-(2-(4-((1S,4S)-2-oxa-5-azabicyclo [2.2.1]heptane-5-yl)piperidine-1-yl)-5-((6-((S)-3-(3,5-difluorobenzyl)isoxazolidine-2-yl)pyrimidine-4-yl)amino)-4-methoxyphenyl) acrylamide] | A (GI50 < 50 nM) |
| C#Cc1cccc([C@H]2CCON2c2cc(Nc3cc(NC(=O)C=C)c(N4CCC(N5C[C@@H](C)O[C@@H](C)C5)CC4)cc3OC)ncn2)c1 [compound 651, N-(2-(4-((2S,6R)-2,6-dimethylmorpholino)piperidine-1-yl)-5-((6-((R)-3-(3-ethynylphenyl)isoxazolidine-2-yl)pyrimidine-4-yl)amino)-4-methoxyphenyl) acrylamide] | A (GI50 < 50 nM) |
| C=CC(=O)Nc1cc(Nc2cc(N3OCC[C@@H]3c3cccc(Cl)c3)ncn2)c(OC)cc1N1CCC(N2CCN(C3CCC3)CC2)CC1 [Example 185, N-(5-((6-((R)-3-(3-chlorophenyl)isoxazolidine-2-yl)pyrimidine-4-yl)amino)-2-(4-(4-cyclobutylpiperazine-1-yl)piperidine-1-yl)-4-methoxyphenyl) acrylamide] | A (GI50 < 50 nM) |
| C=CC(=O)Nc1cc(Nc2cc(N3OCC[C@@H]3c3cccc(F)c3F)ncn2)c(OC)cc1N1CCC(N2CCN(C)[C@@H](C)C2)CC1 [compound 335, N-(5-((6-((R)-3-(2,3-difluorophenyl)isoxazolidine-2-yl)pyrimidine-4-yl)amino)-2-(4-((S)-3,4-dimethylpiperazine-1-yl)piperidine-1-yl)-4-methoxyphenyl) acrylamide] | A (GI50 < 50 nM) |

Source: US12157730B2, “Heteroaryl derivative, method for producing same, and pharmaceutical composition comprising same as effective component” (VORONOI INC., priority 2019, dated 2024)
